Assay results reported in patent publication US20250302862A1, “SMALL RNA DRUG FOR INHIBITING ACTIVITY OF CANCER CELLS” (Institute of Basic Medical Sciences Chinese Academy of …, priority 2022, published 2025).

Tests used:
[1] = system: H460 cells; assay: Cell invasion (Matrigel Transwell); type: cell-based, human; settings: 100 nmol/L, 48 h
Experimental: Matrigel (basement membrane matrix) was thawed on crushed ice one night before and diluted with serum-free medium to a final concentration of 200-300 ug/mL. 100 uL of the diluted Matrigel was added to each upper chamber, let stand at 37° C. for 30 min, and the supernatant was aspirated. H460 cells with a cell density of more than 90% in 10 cm^2 dishes were digested and resuspended with 1 mL of serum-free medium and counted. 100,000 cells (100 uL) were plated in the upper chamber, and complete medium with 10% FBS was added to the lower chamber of each chamber. Transfection was performed after 12 h, and the groups (3 wells per group) were divided as follows: • blank control group: 20 uL of opti-MEM • negative control group (NC group) and experimental group: • A. 10 uL of opti-MEM and 0.2 uL of iMax were mixed well for 5 min • B. 10 uL of opti-MEM and 0.5 uL of small RNA (final concentration 100 nmol/L) were mixed well • C. solution A and solution B were mixed well and let stand for 15 min, and then was added to each well at a 20 uL system • Note: 100 uL of nuclease-free water was added to 2 nmol of small RNA dry powder for dissolution at a storage concentration of 20 umol/L
After 48 h, the medium in upper and lower chambers was discarded. The cells were fixed with paraformaldehyde at room temperature for 15 min, stained with 0.1% crystal violet at room temperature for 15 min, and rinsed with PBS. The cells in the upper chamber were gently wiped off with cotton swabs, and the chamber was dried. A Leica inverted microscope DMi8 was turned on, the 5× objective lens was selected, the parameters were adjusted and the white balance was performed following the manual. Each chamber was photographed, followed by counting and statistic processing.
1) Matrigel basement membrane matrix was thawed on crushed ice one night before and diluted with serum-free medium to a final concentration of 200-300 ug/mL. […] H460 cells with a cell density of more than 90% in 10 cm^2 dishes were digested and resuspended with 1 mL of serum-free medium and counted. […]

[2] = system: primary lung cancer Kras^LSL-G12Dp53^fl/fl (KP) mouse model; assay: Transcriptome sequencing of lung tissue, pathway clustering of differentially expressed genes; type: in vivo; settings: KP mouse lung tissue after 30 days of dosing, metacore pathway clustering, vs NC group
Description: The mouse model of primary lung cancer was Kras^LSL-G12Dp53^fl/fl (KP). Mice were weighed and assigned to the NC group and HQi-sRNA-2 group randomly. The NC group was the negative control, in which a sphingosine(d18:1)-NC-sRNA herbal medicine delivery system was constructed from NC-sRNA. The HQi-sRNA-2 group was the experimental group, in which a sphingosine(d18:1)-HQi-sRNA-2 herbal medicine delivery system was constructed from HQi-sRNA-2. The herbal medicine delivery system was constructed by heating and mixing 10 nmol of sRNA, 100 ug of sphingosine(d18:1) and 300 ul of sterile enzyme-free water in a water bath at 90° C. for 15 minutes. Mouse lung tissue was collected after 30 days of dosing, and the total RNA was extracted and subjected to non-strand-specific transcriptome sequencing. The differentially expressed genes in the experimental group and the control group were analyzed and calculated by a bioinformatics software, and the biological pathways in which the differentially expressed genes mainly functioned were analyzed by clustering using the metacore database. The pathways of the differentially expressed genes were visualized by the visualization software package ggplot2.
(§1) The mouse model of primary lung cancer was Kras^LSL-G12Dp53^fl/fl (KP). Mice were weighed and assigned to the NC group and MDM-sRNA-39 group randomly. […] The differentially expressed genes in the experimental group and the control group were analyzed and calculated by a bioinformatics software, and the biological pathways in which the differentially expressed genes mainly functioned were analyzed by clustering using the metacore database. […]
as §1, with “(KP).” for “(KP). Mice were weighed and assigned to the NC group and MDM-sRNA-39 group randomly.”

| Substance | cell invasion [1] | functions of genes down-regulated at transcriptional level [2] |
| --- | --- | --- |
| HQi-sRNA-2: small RNA derived from Scutellaria baicalensis, sequence AUGGUUCGAUUCCGGAGAGGG (listed as RNA, chemistry not given here) | inhibits | mainly clustered in oncology, immunology and other related biological pathways |
| MDM-sRNA-39: small RNA derived from Maytenus hookeri, sequence GGGAUUGUAGUUCAAUUGGUCAGAGCACC (listed as RNA, chemistry not given here) | inhibits | mainly clustered in oncology, immunology and other related biological pathways |
| MDM-sRNA-163: small RNA derived from Maytenus hookeri, sequence UGACUCUAGUCCGACUUUGUGAAAUGACU (listed as RNA, chemistry not given here) | inhibits | mainly clustered in oncology, immunology, and other related biological pathways |
